Results published in article PMC6017909, “Synthesis and Evaluation of the Tumor Cell Growth Inhibitory Potential of New Putative HSP90 Inhibitors” (Molecules : A Journal of Synthetic Chemistry and Natural …, 2018).

What was measured:
[1] = tested on: A431 squamous cell carcinoma xenografts; experiment: Tumor growth of xenografted mouse model; format: in vivo, nude mice
Protocol: Experiments were carried out using female athymic Swiss nude mice, 8–10 weeks old (Charles River, Calco, Italy). Mice were maintained in laminar flow rooms keeping temperature and humidity constant. Mice had free access to food and water. Experiments were approved by the Ethics Committee for Animal Experimentation of the Istituto Nazionale Tumori of Milan according to institutional guidelines. Epidermoid carcinoma cells, A-431 suspended in culture media were subcutaneously injected on the back of mice. When tumors were just palpable, the mice were randomly divided into two groups: control and compound-treated. Each group was constituted by 8 mice. Saline (0.9% NaCl) or compound solution (5 or 10 mg/kg, respectively) was i.p. administered daily during 3 weeks, to both groups. Tumor volume was assessed using calipers and determined according to the formula (d)^2xD/2.

[2] = tested on: NCI-H460; experiment: Cell-counting assay, 72-h drug exposure; format: cell-based; conditions: Homo sapiens, read-out: Cell Growth Inhibitory Activity NCI-H460 IC50 72 h
From the text: For the cytotoxic activity studies and determination of GI50 concentrations in three different tumor cell lines, the cell culture conditions are described in Section 3.5. For the studies on the effect on % viable cells, cell cycle, cellular proliferation, and apoptosis, culture conditions are described in Section 3.6.1. For the remaining studies, the epithelial carcinoma cell line A431 and the non-small cell lung carcinoma cell line NCI-H460 were routinely grown in RPMI 1640 (Lonza, Vierviers, Belgium), supplemented with 10% (v/v) heat-inactivated fetal bovine serum (FBS, GIBCO, Invitrogen, Paisley, UK). The human peritoneal mesothelioma cell line STO was kindly provided by Dr. N. Zaffaroni (IRCCS Istituto Nazionale Tumori, Milan, Italy) and grown in 50/50 DMEM-Ham’s F12 medium (Lonza, Vierviers, Belgium), supplemented with 10% (v/v) heat-inactivated foetal bovine serum and 2 mM L-glutamine (L-Gln). All cell lines were maintained at 37 °C in a 5%/95% CO2/air atmosphere. All the compounds tested were freshly prepared by dissolving powder in dimethylsulfoxide (DMSO) (BDH Prolabo, Milan, Italy) and following dilution in culture medium. Cells were incubated with drugs for 48 h or 72 h (unless otherwise stated) at 37 °C in culture medium supplemented with 10% (v/v) heat-inactivated FBS; drug concentrations used for each assay and duration of treatments are reported in Legends to Figures.
Cellular sensitivity to drugs was evaluated by a cell-counting assay after 72-h drug exposure. Cells in the logarithmic phase of growth were seeded in duplicate into 6-well plates. Twenty-four hours after seeding, the drug was added to the medium. Cells were harvested 72 h after drug exposure and counted with a cell counter.

[3] = tested on: NCI-H460; experiment: Sulforhodamine B (SRB) cell growth inhibition assay; format: cell-based; conditions: Homo sapiens, 48 h treatment
Protocol: (§1) The following human tumor cell lines were used and maintained in RPMI-1640 medium with UltraGlutamine I and 25 mM Hepes (Lonza, Basel, Switzerland), supplemented with 5% FBS (Biowest): NCI-H460 (non-small cell lung adenocarcinoma), AGS (gastric adenocarcinoma) and MCF-7 (breast adenocarcinoma). The HFF-1 cell line (human foreskin fibroblasts) was cultured in DMEM High Glucose with L-Glutamine supplemented with 15% FBS. All cell lines were routinely maintained at 37 °C in a humidified incubator with 5% CO2. Cell number and viability were determined with the trypan blue exclusion assay. All the experiments were performed with exponentially growing cells presenting more than 90% cell viability.
(§2) The growth inhibitory effect of the compounds was assessed using the Sulforhodamine B (SRB) assay as previously described. Briefly, cells were plated into 96-well plates (5000 cells/well for MCF-7 and NCI-H460 cells and 7500 cells/well for AGS cells) and incubated for 24 h to adhere. Serial dilutions of the different compounds (ranging from 0 to 150 μM or from 0 to 50 μM) were then added to the cells. Cells were further incubated for 48 h. Following this period (or at the time the compound is added, T0), plates were fixed with 10% ice-cold trichloroacetic acid. Following staining with 0.4% SRB, plates were washed with 1% acetic acid and the bound dye solubilized with 10 mM Tris-Base. […] For the HFF-1 cell line, cells (15,000 cells/well) were plated into 96-well plates, allowed to adhere for 24 h and treated with the GI50 concentration of each compound for seven days. After this period, the SRB assay was carried out as described above. The effect of the maximum concentration of vehicle (solvent) of the compounds (H2O: 0.31% for compound 8 and 0.19% for compound 13) was also analyzed in each assay.

[4] = tested on: MCF7; experiment: as above; format: cell-based; conditions: Homo sapiens, 48 h treatment
Protocol: as §1, §2

[5] = tested on: AGS; experiment: as above; format: cell-based; conditions: Homo sapiens, 48 h treatment
Protocol: as §1, §2

[6] = biological target: T1, HSP90 (Homo sapiens, UniProt P07900); experiment: HSP90 binding, fluorescence polarization with GM-FITC; conditions: displacement of GM-FITC 5 nM, 30 nM HSP90, 4 °C, 4 h; read-out: Binding HSP90 (FP) IC50
T1 construct: purchased Stressgen SPP-776
Protocol: GM-FITC Geldanamycin-fluorescein-5-isothiocyanate (working concentration: 1–400 nM), supplied by Invivogen (06C23-MT, San Diego, CA, USA), was previously dissolved in DMSO to obtain 10 mM stock solutions and kept at −20 °C until use. […] The compounds were previously dissolved in DMSO to obtain stock solutions and kept at −20 °C. The day of experiment, the compounds were prepared by serial dilutions in assay buffer (HFB) containing 20 mM HEPES (K) pH 7.3, 50 mM KCl, 5 mM MgCl2, 20 mM Na2MoO4 and 0.01% NP40. Before each use, 0.1 mg/mL Bovine Gamma globulin and 2 mM DTT were freshly added. […] The plate was mixed on a shaker at 4 °C for 4 h, and the FP values in mP (millipolarization units) were recorded. […] Curve fitting was performed using Prism GraphPad software program (GraphPad software, Inc., San Diego, CA, USA).

Structure (SMILES)	Inhibition of tumor growth vs control group ([1]; 5 mg/kg i.p. daily for three weeks)	Inhibition of tumor growth vs control group ([1]; 10 mg/kg i.p. daily for three weeks)	Manifestations of toxicity (death and body weight loss) ([1]; 5 and 10 mg/kg i.p., three weeks)	IC50 [2]	GI50 [3]	GI50 [4]	GI50 [5]	IC50 [6]
O=c1c2ccccc2oc2c[n+](Cc3ccccc3)ccc12.[Br-] [Compound 5, 2-Benzyl-10-oxo-10H-9-oxa-2-azonia-anthracene bromide]	considerable inhibition of tumor growth	accentuated this difference to statistically significant values	no evident manifestations of toxicity	4.8 ± 0.1 µM	5.2 ± 1.2 µM	5.4 ± 0.6 µM	6.9 ± 1.2 µM	–
O=c1c2ccccc2sc2c[n+](Cc3ccccc3)ccc12.[Br-] [Compound 8, 2-Benzyl-5-oxo-5H-thiochromeno[2,3-c]pyridin-2-ium bromide]	–	–	–	–	3.2 ± 0.1 µM	3.2 ± 0.1 µM	3.1 ± 0.3 µM	3.7 ± 0.03 µM
